Test results: patent US8158577B2, “Modulation of cartilage homeostasis by active domains of cell binding extracellular matrix molecules” (priority 2004, dated 2012)
“Also recorded” adds a separate entry of the source.

Tests used:
[1] = Heparin binding on Heparin-Sepharose; conditions: eluted with NaCl (0.5, 1, 2M); Western blot or MALDI-TOF MS
Procedure: Intact recombinant protein (10 μg, EBNA-cell expressed) diluted in PBS was passed over Heparin-Sepharose (Amersham Pharmacia) (1 ml), washed with 20 volumes of PBS and eluted with 2 M NaCl (6×1 ml). Eluted material was precipitated with ethanol, separated by SDS-PAGE (10%) and visualized by western blot (CHAD ab α-80, Larsson et al). The peptide CKFPTKRSKKAGRH (SEQ ID No:7) was diluted in PBS and passed over heparin-sepharose (100 μl), the column was washed with 20 volumes PBS and bound material eluted with 0.5, 1, and 2M NaCl (3 column volumes of each).
Recombinant chondroadherin (10 or 100 μg) expressed in EBNA-cells was passed over Heparin-Sepharose-column (Pharmacia). The column was washed and eluted with 2M NaCl in PBS. Eluted material was separated on SDS-PAGE (10%) and detected by western blot using a chondroadherin antibody (see FIG. 4). The band at 36 kDa represents chondroadherin ant the band at 72 kDa represents a dimer of chondroadherin.
The candidate peptide CKFPTKRSKKAGRH (SEQ ID No: 7) was synthesized. The ability of the peptide to bind heparin was confirmed on heparin-sepharose, where material eluted with 0.5, 1 and 2M NaCl was identified by MALDI-TOF MS (data not shown).

bovine chondrocytes = assay: Adhesion of bovine chondrocytes to human chondroadherin with or without cell binding peptides (FIG. 6); assay type: cell-based; conditions: peptide 250 μg/ml, 1 hour at 37° C., 100,000 cells/well
Procedure: Bovine chondrocytes were isolated by collagenase (CLS1; Worthington Biochemical Corp., Lakewood, N.J.) digestion of articular cartilage from 4-6 month old calves as described (10). Briefly, cartilage slices were digested for 16 hours with collagenase in EBSS (Earle's balanced salt solution, GIBCO BRL Gaithersburg, Md.). The cells were filtered through a 100 μm nylon filter, washed three times in PBS containing 0.2% BSA (SERVA).
To test cell binding, the chondrosarcoma cells or bovine chondrocytes were suspended in PBS containing 0.1% BSA, 25 U/ml collagenase and added to the wells (50,000/well), in the absence or presence of various peptide pools or the synthetic peptides (200, 100, 50, 25, 12.5 μg/ml). Non-adherent cells were removed after 1 hour and adhesion was determined by measuring lysosomal N-acetylglucosaminidase (12). Adhesion and spreading was visualized by light microscopy. […]
Tissue culture dishes were coated with 5 μg/ml chondroadherin expressed in E. coli or collagen type II and blocked for non-specific binding with BSA. […] Adhesion was determined by analyzing lysosomal hexosaminidase. Adhesion is expressed as number of cells, 100,000 cells/well was seeded. […]

binding to heparin-sepharose [1]: confirmed; also recorded: bind heparin
Substance: H-CKFPTKRSKKAGRH-OH [SEQ ID No. 7]
bovine chondrocyte adhesion to chondroadherin in the presence of peptide (bovine chondrocytes): increased
